The results in this text go back to patent US20260183275A1, “SUBSTITUTED QUINOLONE COMPOUNDS USEFUL AS INHIBITORS OF TLR9” (Bristol-Myers Squibb Company, priority 2022, published 2026).

Common to all, as to type: cell-based
One test addresses T1, human TLR9 (Homo sapiens, UniProt Q9NR96).
T1 construct: host or cells: HEK-Blue cells
T1 sequence (Q9NR96 26-1032): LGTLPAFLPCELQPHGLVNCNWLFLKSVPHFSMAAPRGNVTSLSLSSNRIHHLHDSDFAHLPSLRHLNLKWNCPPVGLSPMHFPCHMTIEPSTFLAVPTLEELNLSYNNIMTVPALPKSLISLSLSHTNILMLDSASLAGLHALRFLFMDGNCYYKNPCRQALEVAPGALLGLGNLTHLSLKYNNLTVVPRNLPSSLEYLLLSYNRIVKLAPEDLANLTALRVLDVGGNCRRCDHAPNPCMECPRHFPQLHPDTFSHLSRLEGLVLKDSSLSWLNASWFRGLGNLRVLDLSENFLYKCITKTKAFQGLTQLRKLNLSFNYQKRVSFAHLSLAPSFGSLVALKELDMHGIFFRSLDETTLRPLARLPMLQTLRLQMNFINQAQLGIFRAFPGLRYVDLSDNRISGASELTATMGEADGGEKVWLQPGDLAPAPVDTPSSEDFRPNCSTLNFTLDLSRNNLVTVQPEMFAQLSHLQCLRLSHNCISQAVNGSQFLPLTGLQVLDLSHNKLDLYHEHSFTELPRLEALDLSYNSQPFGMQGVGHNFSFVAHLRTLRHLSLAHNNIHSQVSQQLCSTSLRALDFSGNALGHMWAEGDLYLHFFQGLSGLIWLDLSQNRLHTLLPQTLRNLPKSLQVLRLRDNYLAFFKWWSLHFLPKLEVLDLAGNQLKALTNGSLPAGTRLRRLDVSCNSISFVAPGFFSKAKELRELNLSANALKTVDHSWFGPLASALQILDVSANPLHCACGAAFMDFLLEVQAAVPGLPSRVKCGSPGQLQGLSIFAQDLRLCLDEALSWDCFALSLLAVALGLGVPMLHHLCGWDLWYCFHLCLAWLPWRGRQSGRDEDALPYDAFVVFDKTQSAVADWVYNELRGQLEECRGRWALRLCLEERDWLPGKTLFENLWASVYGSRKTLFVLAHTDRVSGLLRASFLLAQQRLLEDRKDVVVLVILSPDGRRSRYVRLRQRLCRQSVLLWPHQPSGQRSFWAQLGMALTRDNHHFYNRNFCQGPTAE
In words: TLR9 inhibition reporter assay (HEK-Blue cells, SEAP reporter). Conditions: HEK-Blue cells overexpressing human TLR9; stimulated with ODN2006 5 nM; SEAP read after 22 hour; dose range 0.05 nM-50 μM. Here is the method: (§1) HEK-Blue™-cells (Invivogen) overexpressing human TLR7, TLR8 or TLR9 receptors were used for screening inhibitors of these receptors using an inducible SEAP (secreted embryonic alkaline phosphatase) reporter gene under the control of the IFN-β minimal promoter fused to five NF-κB and AP-1-binding sites. Briefly, cells are seeded into Greiner 384 well plates (15000 cells per well for TLR7, 20,000 for TLR8 and 25,000 for TLR9) and then treated with test compounds in DMSO to yield a final dose response concentration range of 0.05 nM-50 μM. After a 30 minute compound pre-treatment at room temperature, the cells are then stimulated with a TLR7 ligand (gardiquimod at a final concentration of 7.5 μM), TLR8 ligand (R848 at a final concentration of 15.9 μM) or TLR9 ligand (ODN2006 at a final concentration of 5 nM) to activate NF-κB and AP-1 which induce the production of SEAP. After a 22 hour incubation at 37° C., 5% CO2, SEAP levels are determined with the addition of HEK-Blue™ Detection reagent (Invivogen), a cell culture medium that allows for detection of SEAP, according to manufacturer's specifications. The percent inhibition is determined as the % reduction in the HEK-Blue signal present in wells treated with agonist plus DMSO alone compared to wells treated with a known inhibitor.

In another test the target is T2, human TLR8 (Homo sapiens, UniProt Q9NR97).
T2 construct: host or cells: HEK-Blue cells
T2 sequence (Q9NR97 27-1041): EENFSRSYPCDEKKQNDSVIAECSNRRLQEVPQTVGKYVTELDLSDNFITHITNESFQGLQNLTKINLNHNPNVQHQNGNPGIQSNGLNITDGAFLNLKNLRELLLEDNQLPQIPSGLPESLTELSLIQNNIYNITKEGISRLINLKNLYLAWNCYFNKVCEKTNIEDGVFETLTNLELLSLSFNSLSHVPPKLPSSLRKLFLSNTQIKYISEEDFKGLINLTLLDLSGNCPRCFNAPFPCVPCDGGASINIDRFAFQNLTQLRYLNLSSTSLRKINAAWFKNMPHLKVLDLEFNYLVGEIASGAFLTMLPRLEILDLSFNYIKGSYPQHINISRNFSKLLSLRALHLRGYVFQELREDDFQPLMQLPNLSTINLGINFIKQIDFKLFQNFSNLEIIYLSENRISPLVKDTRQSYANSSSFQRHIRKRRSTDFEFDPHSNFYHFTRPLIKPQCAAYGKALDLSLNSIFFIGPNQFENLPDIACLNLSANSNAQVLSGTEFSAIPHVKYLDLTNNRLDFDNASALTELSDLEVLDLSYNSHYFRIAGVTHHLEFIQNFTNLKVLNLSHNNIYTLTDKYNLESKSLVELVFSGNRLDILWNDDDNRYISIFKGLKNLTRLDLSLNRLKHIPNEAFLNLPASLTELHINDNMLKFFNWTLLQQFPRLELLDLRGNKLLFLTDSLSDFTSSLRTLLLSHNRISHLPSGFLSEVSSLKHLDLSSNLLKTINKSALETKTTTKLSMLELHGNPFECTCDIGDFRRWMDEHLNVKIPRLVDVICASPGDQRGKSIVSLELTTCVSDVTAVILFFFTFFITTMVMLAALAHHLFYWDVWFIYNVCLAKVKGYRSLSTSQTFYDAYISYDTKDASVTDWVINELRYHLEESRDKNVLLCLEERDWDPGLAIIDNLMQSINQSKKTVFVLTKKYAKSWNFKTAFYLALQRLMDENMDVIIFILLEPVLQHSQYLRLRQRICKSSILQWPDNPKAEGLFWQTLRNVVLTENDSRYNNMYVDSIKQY
In words: TLR8 inhibition reporter assay (HEK-Blue cells, SEAP reporter). The conditions noted are these: HEK-Blue cells overexpressing human TLR8; stimulated with R848 15.9 μM; SEAP read after 22 hour; dose range 0.05 nM-50 μM. Here is the method: as §1

For another test, the target named is T3, human TLR7 (Homo sapiens, UniProt Q9NYK1).
T3 construct: host or cells: HEK-Blue cells
T3 sequence (Q9NYK1 27-1049): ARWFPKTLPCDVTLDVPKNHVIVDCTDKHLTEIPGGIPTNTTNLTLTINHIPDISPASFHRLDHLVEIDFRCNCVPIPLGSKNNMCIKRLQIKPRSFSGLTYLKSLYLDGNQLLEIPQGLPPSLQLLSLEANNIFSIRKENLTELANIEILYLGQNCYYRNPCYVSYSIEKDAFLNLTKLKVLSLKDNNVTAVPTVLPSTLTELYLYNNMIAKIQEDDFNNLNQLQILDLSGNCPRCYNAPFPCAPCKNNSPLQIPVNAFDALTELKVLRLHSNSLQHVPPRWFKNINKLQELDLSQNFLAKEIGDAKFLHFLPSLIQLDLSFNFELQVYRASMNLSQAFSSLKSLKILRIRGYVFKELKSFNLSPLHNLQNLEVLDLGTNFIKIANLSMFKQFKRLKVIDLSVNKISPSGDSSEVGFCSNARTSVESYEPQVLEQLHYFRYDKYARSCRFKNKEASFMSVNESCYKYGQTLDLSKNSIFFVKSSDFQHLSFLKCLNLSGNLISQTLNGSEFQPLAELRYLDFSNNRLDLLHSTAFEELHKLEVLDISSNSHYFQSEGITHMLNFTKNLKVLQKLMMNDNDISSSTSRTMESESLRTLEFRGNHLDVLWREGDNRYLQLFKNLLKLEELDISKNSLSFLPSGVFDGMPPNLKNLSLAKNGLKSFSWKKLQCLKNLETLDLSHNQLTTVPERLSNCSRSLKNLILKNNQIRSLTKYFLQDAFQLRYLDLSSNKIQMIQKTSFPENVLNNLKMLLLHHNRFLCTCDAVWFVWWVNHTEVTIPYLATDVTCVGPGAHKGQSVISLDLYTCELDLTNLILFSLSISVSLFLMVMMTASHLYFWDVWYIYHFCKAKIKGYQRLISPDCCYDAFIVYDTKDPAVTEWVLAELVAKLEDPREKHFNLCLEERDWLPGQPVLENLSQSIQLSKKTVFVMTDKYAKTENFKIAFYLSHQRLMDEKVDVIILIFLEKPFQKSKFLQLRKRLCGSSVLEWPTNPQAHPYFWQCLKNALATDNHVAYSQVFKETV
In words: TLR7 inhibition reporter assay (HEK-Blue cells, SEAP reporter). The conditions noted are these: HEK-Blue cells overexpressing human TLR7; stimulated with gardiquimod 7.5 μM; SEAP read after 22 hour; dose range 0.05 nM-50 μM. Here is the method: as §1

For the molecule `CC(C)N1CCN(c2ccc(-c3ccc4[nH]c(=O)c(-c5ccc(S(C)(=O)=O)cc5)cc4c3)cc2)CC1` [Example 4, 3-(4-methanesulfonylphenyl)-6-{4-[4-(propan-2-yl)piperazin-1-yl]phenyl}-1,2-dihydroquinolin-2-one], the IC50 at human TLR9 is 206 nM; on human TLR8, at least 50000 nM; at human TLR7, 4690 nM.
Turning to `CC(=O)Nc1ccc(-c2cc3cc(-c4ccc(N5CCN(C(C)C)CC5)cc4)ccc3[nH]c2=O)cc1` [Example 5, N-[4-(2-oxo-6-{4-[4-(propan-2-yl)piperazin-1-yl]phenyl}-1,2-dihydroquinolin-3-yl)phenyl]acetamide], the IC50 was 59 nM against human TLR9, at least 50000 nM against human TLR8 and 3870 nM at human TLR7.
On to `CC(C)N1CCN(c2ccc(-c3ccc4[nH]c(=O)c(-c5ccccn5)cc4c3)cc2)CC1` [Example 6, 6-{4-[4-(propan-2-yl)piperazin-1-yl]phenyl}-3-(pyridin-2-yl)-1,2-dihydroquinolin-2-one], for which the half-inhibitory concentration (IC50) at human TLR9 was 79 nM; at human TLR8, at least 50000 nM; against human TLR7, 3830 nM.
Taken in the same sequence, the figures for `CC(C)N1CCN(c2ccc(-c3ccc4[nH]c(=O)c(-c5ccc(-n6cnnn6)cc5)cc4c3)cc2)CC1` [Example 7, 3-(4-(1H-tetrazol-1-yl)phenyl)-6-(4-(4-isopropylpiperazin-1-yl)phenyl)quinolin-2(1H)-one] were 80 nM, at least 50000 nM and 1130 nM.
Taken in the same sequence, the figures for `CC(C)N1CCN(c2ccc(-c3ccc4[nH]c(=O)c(-c5cccc(NS(C)(=O)=O)c5)cc4c3)cc2)CC1` [Example 8, N-[3-(2-oxo-6-{4-[4-(propan-2-yl)piperazin-1-yl]phenyl}-1,2-dihydroquinolin-3-yl)phenyl]methanesulfonamide] were 87 nM, 1820 nM and 299 nM.
The corresponding values for `CC(C)N1CCN(c2ccc(-c3ccc4[nH]c(=O)c(-c5ccc(N(C)C)cc5)cc4c3)cc2)CC1` [Example 9, 3-[4-(dimethylamino)phenyl]-6-{4-[4-(propan-2-yl)piperazin-1-yl]phenyl}-1,2-dihydroquinolin-2-one] are 96 nM, 13700 nM and 3070 nM.
On to `CC(C)N1CCN(c2ccc(-c3ccc4[nH]c(=O)c(-c5cc(F)c(F)cc5F)cc4c3)cc2)CC1` [Example 10, 6-{4-[4-(propan-2-yl)piperazin-1-yl]phenyl}-3-(2,4,5-trifluorophenyl)-1,2-dihydroquinolin-2-one], for which the IC50 is 118 nM against human TLR9, at least 50000 nM at human TLR8 and at least 50000 nM at human TLR7.
Consider `CC(C)N1CCN(c2ccc(-c3ccc4[nH]c(=O)c(-c5ccc(S(N)(=O)=O)cc5)cc4c3)cc2)CC1` [Example 11, 4-(2-oxo-6-{4-[4-(propan-2-yl)piperazin-1-yl]phenyl}-1,2-dihydroquinolin-3-yl) benzene-1-sulfonamide], for which the IC50 was 119 nM against human TLR9, 2050 nM against human TLR8 and at least 50000 nM at human TLR7.
In the case of `CC(C)N1CCN(c2ccc(-c3ccc4[nH]c(=O)c(-c5ccc(C#N)cc5)cc4c3)cc2)CC1` [Example 12, 4-(2-oxo-6-{4-[4-(propan-2-yl)piperazin-1-yl]phenyl}-1,2-dihydroquinolin-3-yl)benzonitrile], the IC50 against human TLR9 is 121 nM; against human TLR8, 7560 nM; on human TLR7 it was 3000 nM.
Turning to `CC(C)N1CCN(c2ccc(-c3ccc4[nH]c(=O)c(-c5cncnc5)cc4c3)cc2)CC1` [Example 34, 6-{4-[4-(propan-2-yl)piperazin-1-yl]phenyl}-3-(pyrimidin-5-yl)-1,2-dihydroquinolin-2-one], the values for the IC50 at human TLR9 and against human TLR7 were 307 nM and 1080 nM, respectively.
As to `CC(C)N1CCC(c2ccc(-c3ccc4[nH]c(=O)c(-c5ccc(N(C)C)cc5)cc4c3)cc2)CC1` [Example 88, 3-[4-(dimethylamino)phenyl]-6-{4-[1-(propan-2-yl)piperidin-4-yl]phenyl}-1,2-dihydroquinolin-2-one], the IC50 against human TLR9 was 449 nM; against human TLR8, 118 nM.
